Source: US11723894B2, “Combination product for the treatment of neurological and/or psychiatric disorders” (Consejo Superior de Investigaciones Cientificas (CSIC), priority 2017, dated 2023)

What was measured:
[1] = test system: astrocytes; assay: LPS-induced nitrite production (Griess) in primary astrocyte cultures; assay type: cell-based, rat; details: for reduction of LPS-induced nitrite in the presence of Rit: Rit 1 μM 1 h before tryptamine 1 μM, then LPS 10 μg/mL 24 h; for LPS-induced nitrite increases: tryptamine 1 μM before LPS 10 μg/mL, 24 h, vs LPS alone
Experimental: (§1) Example 8: DMT, DET, DPT and 5-MeO-DMT administration in vitro prevents inflammation in rat primary glial cells. […] Rat primary glial cell cultures were prepared from the cerebral cortex of 3 day old rats which were dissected, dissociated, and incubated with 0.25% trypsin/EDTA at 37° C. for 1 h. After centrifugation, the pellet was washed three times with HBSS (Gibco) and the cells were plated in poly-D-lysine (20 μg/mL) pretreated flasks (75 cm2). After 7-10 days, the flasks were agitated in an orbital shaker for 4 h at 230 rpm at 37° C. and non-adherent microglial cells were isolated and plated. Then Dulbecco's Modified Eagle's Medium (DMEM) was added to the flasks, which were agitated in a horizontal shaker at 260 rpm at 37° C. After overnight agitation, the supernatant (oligodendrocytes and some remaining microglial cells) was removed, and astrocytes (adherent cells) were collected. The purity of the cultures was >95%, as determined by immunofluorescence analysis using an anti-glial fibrillary acidic protein (GFAP; clone G-A-5; Sigma-Aldrich) antibody to identify astrocytes, and an anti-Iba1 (Wako Catalog No. 019-19741) antibody to identify microglial cells. On attaining semiconfluence, cells were administered each of the test tryptamines at 1 μM or with the combination test tryptamine+Ritanserin (Rit at 1 μM) 2 h before exposure to lipopolysaccharide (LPS, 10 μg/mL; Sigma-Aldrich) and kept in the presence of each drug or drug combination for 24 h. In combination studies, Rit was added to medium 1h before administration of the corresponding tryptamine. Vehicle-treated cultures were used as a control. After the 24 h drug exposure period, cultures were tested to assess nitrite release. To quantify nitrite concentrations in culture medium, supernatants of glial cultures were collected and mixed with an equal volume of Griess reagent (Sigma-Aldrich). Samples were then incubated at room temperature for 15 min and absorbance was measured at 540 nm on a microplate reader. Results are expressed as the mean±SEM of six replications in three different experiments

[2] = test system: Human SH-SY5Y dopaminergic cells; assay: 6-OHDA in vitro model of Parkinson's Disease, cell viability (MTT); assay type: cell-based; details: tryptamine 1 μM 1 h, then 6-OHDA 30 μM 24 h; for reduction in dopaminergic cell death in the presence of Ritanserin: Rit 1 μM 1 h; for percentage of viable dopaminergic neurons: vs 6-OHDA alone
Description: (§2) Example 9: DMT, DET, DPT and 5-MeO-DMT prevent dopaminergic cell death and inflammation (Only Measured for DMT) caused by the potent and selective dopaminergic toxin 6-OHDA in an in vitro model of Parkinson's Disease. These desired effects are preserved in the presence of the 5-HT2A antagonist Ritanserin (Rit). The Human SH-SY5Y dopaminergic cell line was obtained from Sigma-Aldrich, cultured in 96-well plates and propagated in RPMI medium containing glutamine (1%) and 15% of fetal bovine serum (FBS) plus antibiotic (gentamicin), under humidified 5% CO2 and 95% air. On attaining semiconfluence, separate groups of cells were treated with either: a) one of the four hallucinogenic tryptamines at 1 μM for 1 h, followed by 6-OHDA at 30 μM for 24 hours; or b) Rit at 1 μM for 1h, followed one of the four hallucinogenic tryptamines at 1 μM for an additional hour, at which point 6-OHDA was administered, also at 30 μM, and kept for 24 hours. Vehicle-treated cultures were used as controls. Cell cultures were then processed to assess cell viability (for all four tryptamines) and quantification of nitrite concentration (only performed in the DMT and DMT+Rit tests). Cell viability was measured using the MTT assay (Roche Diagnostic, GmbH), which is based on the ability of viable cells to reduce yellow MTT to blue formazan. After the aforementioned 24 h period in the presence of the different tryptamines or the respective tryptamine+Rit combinations, cells were incubated with MTT (0.5 mg/ml, 4 h) and subsequently solubilized in 10% SDS/0.01 M HCl for 12 h in the dark. The extent of MTT reduction was quantified by absorbance measurement at the 595 nm wavelength, as indicated in the instructions provided by the manufacturer. Nitrite quantification: Due to access to equipment problems at the time the experiments with DET, DPT and 5-MeO-DMT were conducted, the assessment of nitrite levels in the medium could only be done for the DMT experiments. These determinations were carried out as described in Example 8. Results from the cell viability tests are expressed as the percentage of viable dopaminergic cells measured. Results from nitrite determinations are expressed as actual concentrations (μM). Results from both techniques are presented in bar graphs.

[3] = test system: microglial cells; assay: LPS-induced nitrite production (Griess) in primary microglial cultures; assay type: cell-based, rat; details: microglia; for reduction of LPS-induced nitrite in the presence of Rit: Rit 1 μM 1 h before tryptamine 1 μM, then LPS 10 μg/mL 24 h; for LPS-induced nitrite increases: tryptamine 1 μM before LPS 10 μg/mL, 24 h, vs LPS alone
Experimental: as §1

[4] = 6-OHDA in vitro model of Parkinson's Disease, cell viability (MTT); assay type: cell-based, human; details: human, SH-SY5Y dopaminergic cells, 6-OHDA alone 30 μM 24 h
Description: as §2

[5] = test system: dopaminergic neurons of the Substantia nigra pars compacta; assay: 6-OHDA in vivo model of Parkinson's Disease (injection into Substantia nigra pars compacta); parameters: species or system C57BL/6 mice; details: 5 μg 6-OHDA alone into SNpc, 3 weeks
Experimental: Example 10: DMT administration prevents dopaminergic cell death in a in vivo model of Parkinson's disease. Adult male C57BL/6 mice (8-12 weeks old) were used in this study. Animals were properly anaesthetized and placed in a stereotaxic apparatus (Kopf Instruments, CA). 6-OHDA (5 μg in […] PBS) was injected into the right side of the Substantia nigra pars compacta (SNpc) (coordinates from Bregma: posterior −3.2 mm; lateral +2.0 mm; ventral: +4.7 mm, according to the atlas of Paxinos and Franklin, The Mouse Brain in Stereotaxic Coordinates. 4. San Diego: Academic Press; 2012). Control animals of the same age were injected with PBS. A third group received an injection with 6-OHDA (5 μg) combined with DMT (0.1 μg) in […] PBS. Mice were then housed individually to recover and sacrificed 3 weeks later. At this point animals were anaesthetized and perfused transcardially with a 4% paraformaldehyde solution. The brains were removed, postfixed in the same solution at 4° C. overnight, cryoprotected in 20% sucrose, frozen, and 30 μm coronal sections were obtained in a cryostat. Free-floating sections were processed for double fluorescent immunohistochemistry. […] Neuronal integrity and specifically dopaminergic cell death was assessed by counting the percentage of TH^+ cells in the SNpc following a stereological approach. […] Images were analyzed using computer-assisted image analysis software (Soft Imaging System Corporation, Lakewood, Colo.). Results were expressed as the percentage of dopaminergic cell loss in the SNpc.

Row | Compound | reduction of LPS-induced nitrite in the presence of Rit [1] | LPS-induced nitrite increases [1] | reduction in dopaminergic cell death in the presence of Ritanserin [2] | percentage of viable dopaminergic neurons [2] | reduction of LPS-induced nitrite in the presence of Rit [3] | LPS-induced nitrite increases [3] | viability at 24 h, 30 μM ([4]; DET, DPT and 5-MeO-DMT experiments, read-out: cell viability, of the reference control value) | cytotoxicity at 24 h, 30 μM ([4]; DMT experiments (graph A.1), read-out: reduction in the number of viable dopaminergic cells compared to vehicle treated cultures) | average percentage of dopaminergic cell loss in the SNpc [5]
1 | COc1ccc2[nH]cc(CCN(C)C)c2c1 [5-MeO-DMT, 5-methoxy-N,N-dimethyltryptamine] | maintained | significantly reduced | maintained | significant increases | maintained | significantly reduced |  |  | 
2 | NCCc1cc(O)c(O)cc1O [6-OHDA, 6-hydroxy-dopamine, reference compound] |  |  |  |  |  |  | ~60% | 50% | 60%
3 | CCCN(CCC)CCc1c[nH]c2ccccc12 [DPT, N,N-dipropyltryptamine] | maintained | significantly reduced | maintained | significant increases | maintained | significantly reduced |  |  | 
4 | CCN(CC)CCc1c[nH]c2ccccc12 [DET, N,N-diethyltryptamine] | maintained | significantly reduced | maintained | significant increases | maintained | significantly reduced |  |  | 
